# Reference: patent US8343930B2, “Combination therapy for the treatment of tumors” (Cancer Advances, Inc., priority 2001, dated 2013)
# Legend:
# [1] = tested on: rat colon tumor DHDK12; assay: In vivo growth of DHDK12 tumors in abdominal wall muscle layer of BDIX rats; conditions: immunization alone (200 μg/ml), 50 day time period; untreated 4.43 g
# Method: Cell line. DHDK12 is a rat colonic epithelial tumor cell line (Martin, 1983). The cell line was maintained in RPMI 1640 growth medium (Gibco, Paisley, Scotland) containing 10% fetal calf serum (FCS, Sigma, Poole, UK) in humidified conditions at 37° C. and 5% CO2.
# Initiation of tumor growth. DHDK12 cells were suspended in sterile phosphate buffered line (PBS, Oxoid, Hants., UK) at a cell concentration of 2.5×10^7/ml. Rats were anesthetized by a 1 ml intraperitoneal injection of Hypnorm ([…] fenatanyl citrate and 10 mg/ml fluanisone; Jannsen, Berrse, Belgium), Hypnovel ([…] midazolam; Roche, Basel, Switzerland), and sterile distilled water in a 1:1:5 ratio. Following a subcutaneous (s.c.) incision on the right flank, a 200 μl volume of cell suspension was injected into the muscle layer of the abdominal wall and the surgical incision closed by wound clips. Each experimental group was composed of between 6 and 13 animals.
# The effects of combined therapies with 5-FU/Leucovorin (12.5-30 mg/kg) and rat anti-G17(1-9)-DT (200 μg/ml) on the growth of the rat colon tumor DHDK12 cell line in the muscle layer of the abdominal wall of BDIX rats were tested by comparison to tumors in control animals as described in the previous Examples. At the end of the therapies the rats were killed, their tumors excised and weighed using standard procedures. […]
# [2] = tested on: gastrin-sensitive mouse colon tumor MC26; conditions: MC26-bearing mice; control animals 25 days; cited from earlier work
# [3] = tested on: a number of cell lines; conditions: Seva et al., 1990; Watson et al., 1991a; cited from earlier work
# [4] = tested on: advanced colorectal cancer; conditions: advanced disease (Petrioli et al., 1995); cited from earlier work
compound,measurement,setting,value
Diphtheria toxoid [DT],median tumor weight,[1],4.7 g
CCCN(CCC)C(=O)C(CCC(=O)O)NC(=O)c1ccccc1 (centres unmarked) [proglumide],survival of treated animals,[2],39 days
same,effect on basal and gastrin-stimulated proliferation,[3],inhibited
"O=c1[nH]cc(F)c(=O)[nH]1 [5-FU, 5-fluorouracil]",median survival,[4],7.5 months
O=C(N[C@@H](Cc1c[nH]c2ccccc12)C(=O)O)c1ccc(Cl)cc1 [Benzotript],effect on basal and gastrin-stimulated proliferation,[3],inhibited
